Consider 1 compound from article PMC6804443 (Acta Pharmaceutica Sinica. B, 2019).

One data set addresses T1, UGT1A9 (Homo sapiens, UniProt O60656).
T1 sequence (O60656 26-530): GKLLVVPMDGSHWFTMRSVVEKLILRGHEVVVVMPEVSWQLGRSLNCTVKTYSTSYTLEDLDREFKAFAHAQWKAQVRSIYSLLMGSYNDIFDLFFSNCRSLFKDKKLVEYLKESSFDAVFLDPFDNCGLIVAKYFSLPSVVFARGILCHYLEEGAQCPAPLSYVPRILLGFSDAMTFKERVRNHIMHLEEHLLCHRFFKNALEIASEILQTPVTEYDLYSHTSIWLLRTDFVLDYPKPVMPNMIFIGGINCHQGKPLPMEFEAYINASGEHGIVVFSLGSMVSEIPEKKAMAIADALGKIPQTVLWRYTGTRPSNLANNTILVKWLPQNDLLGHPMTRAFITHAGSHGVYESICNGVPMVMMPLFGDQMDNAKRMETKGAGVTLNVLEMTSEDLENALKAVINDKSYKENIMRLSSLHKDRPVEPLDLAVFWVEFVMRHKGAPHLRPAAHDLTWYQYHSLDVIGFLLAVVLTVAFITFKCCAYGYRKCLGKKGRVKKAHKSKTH
Kind of data set: UGT1A9 inhibition by XueBiJing compounds, cDNA-expressed enzyme [4-MU→4-MUG]. In kind it is in vitro ADME.

Data set [1] concerns P450 enzymes, UGTs, SULTs, OATP1B1/1B3, OAT1/3, OCT2, MATE1/2-K, MDR1, BCRP. Particulars: cited from earlier work.
The subject of another data set is CYP1A2. Particulars: higher concentrations; range over the named compounds and enzymes.
For the next data set, the target named is T2, UGT2B15 (Homo sapiens, UniProt P54855).
T2 sequence (P54855 24-530): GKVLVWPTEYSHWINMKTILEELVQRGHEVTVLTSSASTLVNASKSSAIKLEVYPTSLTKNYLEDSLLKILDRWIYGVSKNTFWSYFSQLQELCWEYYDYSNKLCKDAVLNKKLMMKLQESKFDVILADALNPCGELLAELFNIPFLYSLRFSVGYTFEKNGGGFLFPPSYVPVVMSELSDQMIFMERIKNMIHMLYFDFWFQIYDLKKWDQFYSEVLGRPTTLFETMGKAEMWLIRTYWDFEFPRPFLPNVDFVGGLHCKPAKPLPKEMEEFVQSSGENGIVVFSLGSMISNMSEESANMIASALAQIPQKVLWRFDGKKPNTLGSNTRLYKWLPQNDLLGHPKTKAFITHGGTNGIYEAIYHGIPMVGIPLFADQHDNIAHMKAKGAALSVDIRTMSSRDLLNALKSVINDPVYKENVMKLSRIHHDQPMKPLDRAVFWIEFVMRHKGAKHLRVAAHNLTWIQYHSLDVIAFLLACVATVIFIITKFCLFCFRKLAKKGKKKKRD
Nature of the data set: UGT2B15 inhibition by XueBiJing compounds, cDNA-expressed enzyme [SENI→S7G]. Type of data set: in vitro ADME.

The next data set has as its target T3, UGT1A1 (Homo sapiens, UniProt P22309).
T3 sequence (P22309 26-533): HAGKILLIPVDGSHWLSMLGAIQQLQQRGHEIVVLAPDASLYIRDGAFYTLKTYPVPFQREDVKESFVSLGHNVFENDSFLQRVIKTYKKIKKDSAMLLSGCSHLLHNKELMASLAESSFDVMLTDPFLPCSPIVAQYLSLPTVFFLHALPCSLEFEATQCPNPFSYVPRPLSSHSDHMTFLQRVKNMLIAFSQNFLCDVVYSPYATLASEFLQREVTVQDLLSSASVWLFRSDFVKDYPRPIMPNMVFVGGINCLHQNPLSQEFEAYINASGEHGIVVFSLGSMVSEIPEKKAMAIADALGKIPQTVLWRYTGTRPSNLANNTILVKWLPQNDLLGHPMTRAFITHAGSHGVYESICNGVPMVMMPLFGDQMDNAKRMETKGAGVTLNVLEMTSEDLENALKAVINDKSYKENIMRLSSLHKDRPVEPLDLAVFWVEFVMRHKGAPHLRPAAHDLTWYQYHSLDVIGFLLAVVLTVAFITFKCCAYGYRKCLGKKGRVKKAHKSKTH
Nature of the data set: UGT1A1 inhibition by XueBiJing compounds, cDNA-expressed enzyme [E2→E23βG]. Type of data set: in vitro ADME.

Another data set concerns the target CYP2C19 (Homo sapiens, UniProt P33261). Kind of data set: CYP2C19 inhibition by XueBiJing compounds, cDNA-expressed enzyme [CEC→CHC]. In kind it is in vitro ADME.
Another data set deals with CYP2C9 (Homo sapiens, UniProt P11712). Kind of data set: CYP2C9 inhibition by XueBiJing compounds, cDNA-expressed enzyme [MFC→HFC]. In kind it is in vitro ADME.
The target of another data set is T4, OAT3 (Homo sapiens, UniProt Q8TCC7).
T4 sequence (Q8TCC7 1-542): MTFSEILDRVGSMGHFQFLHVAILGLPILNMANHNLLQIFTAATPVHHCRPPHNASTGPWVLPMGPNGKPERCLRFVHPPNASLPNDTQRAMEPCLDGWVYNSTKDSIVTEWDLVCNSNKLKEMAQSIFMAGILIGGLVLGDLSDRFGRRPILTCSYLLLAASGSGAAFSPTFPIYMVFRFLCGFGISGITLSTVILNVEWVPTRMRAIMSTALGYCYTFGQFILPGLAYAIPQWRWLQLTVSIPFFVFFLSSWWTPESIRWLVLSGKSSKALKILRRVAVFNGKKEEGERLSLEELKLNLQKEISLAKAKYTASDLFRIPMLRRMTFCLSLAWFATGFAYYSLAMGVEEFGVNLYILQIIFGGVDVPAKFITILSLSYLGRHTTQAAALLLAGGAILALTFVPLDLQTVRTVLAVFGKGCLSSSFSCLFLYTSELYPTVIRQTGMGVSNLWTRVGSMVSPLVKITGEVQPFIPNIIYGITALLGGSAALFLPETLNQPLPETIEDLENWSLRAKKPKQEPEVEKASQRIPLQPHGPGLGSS
In kind it is in vitro ADME.

Entries after “also recorded” stand apart in the source; their conditions may differ.

Sequence of CYP2C9 (P11712 whole entry): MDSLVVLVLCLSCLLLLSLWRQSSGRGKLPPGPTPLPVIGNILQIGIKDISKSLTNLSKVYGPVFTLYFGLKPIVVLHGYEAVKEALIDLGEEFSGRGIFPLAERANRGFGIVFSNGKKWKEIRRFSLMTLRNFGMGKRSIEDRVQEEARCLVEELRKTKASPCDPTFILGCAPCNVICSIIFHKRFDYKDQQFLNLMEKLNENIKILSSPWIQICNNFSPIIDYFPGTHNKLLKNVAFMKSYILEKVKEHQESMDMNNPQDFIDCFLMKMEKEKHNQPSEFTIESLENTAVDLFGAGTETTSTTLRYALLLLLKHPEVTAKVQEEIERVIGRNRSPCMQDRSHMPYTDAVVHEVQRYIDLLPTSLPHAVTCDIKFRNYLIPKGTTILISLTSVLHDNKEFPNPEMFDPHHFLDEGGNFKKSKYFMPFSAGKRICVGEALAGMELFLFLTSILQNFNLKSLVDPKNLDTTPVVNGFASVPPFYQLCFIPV
Sequence of CYP2C19 (P33261 whole entry): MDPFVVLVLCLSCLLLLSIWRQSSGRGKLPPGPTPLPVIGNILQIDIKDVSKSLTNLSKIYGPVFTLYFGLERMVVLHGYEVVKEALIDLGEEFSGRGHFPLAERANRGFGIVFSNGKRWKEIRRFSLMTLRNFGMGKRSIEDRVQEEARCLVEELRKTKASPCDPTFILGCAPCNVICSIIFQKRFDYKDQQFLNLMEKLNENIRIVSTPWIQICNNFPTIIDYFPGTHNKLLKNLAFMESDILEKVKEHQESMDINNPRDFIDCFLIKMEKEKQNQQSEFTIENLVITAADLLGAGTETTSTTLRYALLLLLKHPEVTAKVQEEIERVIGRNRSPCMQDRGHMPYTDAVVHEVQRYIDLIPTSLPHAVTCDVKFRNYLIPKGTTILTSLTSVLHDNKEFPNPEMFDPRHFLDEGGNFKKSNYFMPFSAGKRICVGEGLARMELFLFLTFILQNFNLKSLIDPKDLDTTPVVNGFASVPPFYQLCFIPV

What is called IC50 is the concentration that gives 50% inhibition. High values mean weaker potency, low ones greater potency. As usually defined, the inhibition is the percentage by which the read-out fell short of the control. A higher inhibition goes with a strong effect. For `O=C(/C=C/c1ccc(O)c2c1[C@H](C(=O)O[C@H](Cc1ccc(O)c(O)c1)C(=O)O)[C@@H](c1ccc(O)c(O)c1)O2)O[C@H](Cc1ccc(O)c(O)c1)C(=O)O` [X10, salvianolic acid B], the IC50 is 3 ± 1 µM at UGT1A9; 92 ± 25 µM against UGT2B15; 10 ± 1 µM on UGT1A1; 19 ± 4 µM on CYP2C19; 75 ± 13 µM against CYP2C9; 31 ± 8 µM on OAT3. For the same compound, the inhibition at 100 μmol/L is more than 90% on UGT1A9 (human, cDNA-expressed UGT1A9, probe 4-MU (10 μmol/L), 4-MUG formed); 55% against UGT2B15 (human, cDNA-expressed UGT2B15); more than 90% against UGT1A1 (human, cDNA-expressed UGT1A1, probe E2 (20 μmol/L), E23βG formed); 68 to 80% against CYP2C19 (human, cDNA-expressed CYP2C19, probe CEC (25 μmol/L)); 68 to 80% against CYP2C9 (human, cDNA-expressed CYP2C9, probe MFC (75 μmol/L)). Further, in data set [1], the “Related metabolism and transport data (substrate status)” value was “Highly selective OATP1B3 substrate; also recorded: COMT substrate”. In the data set on CYP1A2, the “mRNA-T/U ratio, CYP1A2” value is given as 4.0 to 9.6.
